Test [1] has as its system MCF7. Briefly: Antiproliferative activity against human MCF7 cells incubated for 72 hrs by MTT assay. The format is functional, cell-based. The settings on record: MCF7, 72 h.
Test [2] concerns NCI/ADR-RES. Briefly: Antiproliferative activity against human MCF7ADR cells incubated for 72 hrs by MTT assay. In kind it is functional, cell-based. A general note: Tetrazolium dyes change colour on reduction, which living cells bring about.
Test [3] concerns MCF7. Briefly: Antiproliferative activity against human MCF7 cells assessed as survival rate at 5 uM incubated for 72 hrs by MTT assay. The format is functional. The settings on record: read-out: Survival.
The test system of test [4] is NCI/ADR-RES. The experiment in a line: Antiproliferative activity against human MCF7ADR cells assessed as survival rate at 5 uM incubated for 72 hrs by MTT assay. In kind it is functional. The settings on record: read-out: Survival.
Test [5] has as its system NCI/ADR-RES. Briefly: Reversal of paclitaxel resistance in human MCF7ADR cells assessed as reduction in paclitaxel IC50 at 5 uM pretreated with compound for 4 hrs followed by paclitaxel addition and measured after 72 hrs by MTT assay (reference value: 6.68 +/- 0.35 microM). In kind it is functional, cell-based.
Test [6] deals with NCI/ADR-RES. Briefly: Reversal of paclitaxel resistance in human MCF7ADR cells assessed as reversal fold by measuring ratio of paclitaxel IC50 to paclitaxel IC50 in presence of test compound at 5 uM incubated for 72 hrs by MTT assay. The format is functional.

The term IC50 denotes the concentration at which inhibition is half-maximal.

Take `COc1cc(-c2c(C)nc3cc(-c4ccco4)nn3c2-c2cc(OC)c(OC)c(OC)c2)cc(OC)c1OC`: the IC50 in the test on MCF7 [1] is greater than 20 µM; with NCI/ADR-RES [2], greater than 20 µM; with NCI/ADR-RES [5], 0.044 µM. In addition, the viability at 5 µM came out at 95.1% with MCF7 [3] and 89.9% with NCI/ADR-RES [4]. The Ratio in the test with NCI/ADR-RES [6] turned out to be 151.81.

With `COc1ccc(-c2c(C)nc3cc(-c4cccs4)nn3c2-c2cc(OC)c(OC)c(OC)c2)cc1OC`, the IC50 with MCF7 [1] is greater than 20 µM; with NCI/ADR-RES [2], greater than 20 µM; in the test on NCI/ADR-RES [5], 0.031 µM. Further, the viability at 5 µM was found to be 94.1% with MCF7 [3] and 94.6% in the test on NCI/ADR-RES [4]. In the test with NCI/ADR-RES [6], the Ratio is 215.48.

Consider `COc1ccc(-c2c(C)nc3cc(C4CC4)nn3c2-c2cc(OC)c(OC)c(OC)c2)cc1`, for which the 50% inhibitory concentration (IC50) in the test on MCF7 [1] is greater than 20 µM; with NCI/ADR-RES [2], greater than 20 µM; in the test on NCI/ADR-RES [5], 0.12 µM. The viability at 5 µM was greater than 99% in the test with MCF7 [3] and 95.1% in the test with NCI/ADR-RES [4]. The Ratio in the test on NCI/ADR-RES [6] was found to be 51.28.

Regarding `COc1cc(-c2c(C)nc3ccnn3c2-c2cc(OC)c(OC)c(OC)c2)cc(OC)c1OC`, the IC50 with MCF7 [1] was greater than 20 µM; in the test with NCI/ADR-RES [2], greater than 20 µM; in the test with NCI/ADR-RES [5], 2.12 µM. In addition, the viability at 5 µM with MCF7 [3] and in the test on NCI/ADR-RES [4] was greater than 99% in each case. Also, the Ratio in the test on NCI/ADR-RES [6] turned out to be 3.15.

`COc1cc(-c2c(C)nc3cc(C4CC4)nn3c2-c2cc(OC)c(OC)c(OC)c2)cc(OC)c1OC`: the half-maximal inhibitory concentration (IC50) with MCF7 [1] was greater than 20 µM; in the test on NCI/ADR-RES [2] it was greater than 20 µM; with NCI/ADR-RES [5] it was 0.1 µM. Moreover, the viability at 5 µM in the test on MCF7 [3] turned out to be 95.6%; with NCI/ADR-RES [4], 90.5%. In addition, the Ratio in the test on NCI/ADR-RES [6] came out at 66.8.

In the case of `COc1cc(-c2c(-c3ccc(Cl)cc3)c(C)nc3cc(-c4cccs4)nn23)cc(OC)c1OC`, the half-maximal inhibitory concentration (IC50) is greater than 20 µM with MCF7 [1], greater than 20 µM with NCI/ADR-RES [2] and 0.082 µM in the test with NCI/ADR-RES [5]. In addition, the results for the viability at 5 µM in the test with MCF7 [3] and with NCI/ADR-RES [4] were 98.2% and 94.2%, respectively. Further, the Ratio with NCI/ADR-RES [6] is 81.46.

As for `COc1cc(-c2c(-c3ccc(Br)cc3)c(C)nc3cc(-c4ccccc4)nn23)cc(OC)c1OC`, the IC50 is greater than 20 µM with MCF7 [1], greater than 20 µM in the test on NCI/ADR-RES [2] and 0.053 µM in the test on NCI/ADR-RES [5]. The results for the viability at 5 µM in the test with MCF7 [3] and in the test with NCI/ADR-RES [4] were 95.2% and 95.1%, respectively. Moreover, the Ratio with NCI/ADR-RES [6] is recorded as 126.03.

`COc1cc(-c2c(-c3ccc(F)cc3)c(C)nc3cc(-c4ccco4)nn23)cc(OC)c1OC`: the half-inhibitory concentration (IC50) was greater than 20 µM in the test with MCF7 [1], greater than 20 µM in the test with NCI/ADR-RES [2] and 0.18 µM with NCI/ADR-RES [5]. The results for the viability at 5 µM with MCF7 [3] and in the test on NCI/ADR-RES [4] were 91.6% and 93.8%, respectively. Moreover, the Ratio in the test with NCI/ADR-RES [6] stood at 37.11.

With `COc1cc(-c2c(-c3ccc(Cl)cc3)c(C)nc3cc(-c4ccco4)nn23)cc(OC)c1OC`, the IC50 with MCF7 [1] was greater than 20 µM; with NCI/ADR-RES [2], greater than 20 µM; in the test with NCI/ADR-RES [5], 4.3 µM. Also, the viability at 5 µM in the test with MCF7 [3] was 95.8%; in the test on NCI/ADR-RES [4], 94.7%. Also, the Ratio in the test with NCI/ADR-RES [6] is on record as 1.55.

As to `COc1cc(-c2c(-c3ccc(F)cc3)c(C)nc3cc(-c4cccs4)nn23)cc(OC)c1OC`, the values for the concentration for half-maximal inhibition (IC50) in the test on MCF7 [1], with NCI/ADR-RES [2] and in the test on NCI/ADR-RES [5] were greater than 20 µM, greater than 20 µM and 0.12 µM, respectively. Also, the viability at 5 µM with MCF7 [3] turned out to be 95.6%; with NCI/ADR-RES [4] it was 90.7%. The Ratio in the test on NCI/ADR-RES [6] was 55.67.

`COc1cc(-c2c(C)nc3cc(C)nn3c2-c2cc(OC)c(OC)c(OC)c2)cc(OC)c1OC`: the concentration for half-maximal inhibition (IC50) in the test on MCF7 [1] was greater than 20 µM; in the test on NCI/ADR-RES [2], greater than 20 µM; with NCI/ADR-RES [5], 0.46 µM. The values for the viability at 5 µM in the test with MCF7 [3] and in the test on NCI/ADR-RES [4] were 94.4% and 96.6%, respectively. In addition, in the test with NCI/ADR-RES [6], the Ratio is recorded as 14.52.

Turning to `COc1cc(-c2c(-c3ccc(Br)cc3)c(C)nc3cc(-c4ccco4)nn23)cc(OC)c1OC`, the values for the half-maximal inhibitory concentration (IC50) with MCF7 [1], with NCI/ADR-RES [2] and with NCI/ADR-RES [5] were greater than 20 µM, greater than 20 µM and 5.86 µM, respectively. Besides, the viability at 5 µM is 94.5% with MCF7 [3] and 93.6% in the test with NCI/ADR-RES [4]. In addition, the Ratio in the test with NCI/ADR-RES [6] was 1.14.

Source of the values: ChEMBL document CHEMBL5614402, “Discovery of novel pyrazolo[1,5-a]pyrimidine derivatives as potent reversal agents against ABCB1-mediated multidrug resistance” (Eur J Med Chem, 2024).
